The source of these data is publication PMC11714206, “Massively Parallel Screening of Toll/Interleukin‐1 Receptor (TIR)‐Derived Peptides Reveals Multiple Toll‐Like Receptors (TLRs)‐Targeting Immunomodulatory Peptides” (Advanced Science, 2024).

For this assay, the target named is T1, MAL^TIR (Homo sapiens, UniProt P58753).
T1 construct: MAL (residues 79–221); 6xHis; made in house; host or cells: E. coli BL21 (DE3)
Description: T‐Surf phage library (P8 and P3) selection against MAL^TIR, four rounds, NGS read counts. The assay is classed as binding. The note with it: for P8_MAL Rank (after) / P8_MAL Rank (before): P8 library; for P3_MAL Rank (after) / P3_MAL Rank (before): P3 library; for Population: 4th round of selection against MAL TIR, share of NGS reads. An outline of the steps: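 Read counts come from NGS of phage pools enriched over four selection rounds on the plate‐coated TIR domain (5 µg mL^−1). Each round: 1 h phage binding at room temperature after 0.2% BSA blocking, Tween washes, acid elution, amplification in E. coli TG1 with M13KO7 helper.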

Where [1] appears, read: selection against MAL TIR, rank by count after grouping.
The mark [2] stands for this setting: selection against MAL TIR, rank by count before grouping.
Where [3] appears, read: selection against MAL, rank after grouping.
[4] abbreviates: selection against MAL, rank before grouping.
Where [5] appears, read: P8_MAL: rank by count after grouping.
Where [6] appears, read: P8_MAL: rank by count before grouping.
Setting [7] is: 4R selection against MAL, rank after grouping.
[8] abbreviates: 4R selection against MAL, rank before grouping.
The mark [9] stands for this setting: selection against MAL, rank by count after grouping.
The mark [10] stands for this setting: selection against MAL, rank by count before grouping.
The mark [11] stands for this setting: P3_MAL: rank by count after grouping.
Where [12] appears, read: P3_MAL: rank by count before grouping.
Where [13] appears, read: P3_MAL pool: P3 T-Surf phage library.

T1 sequence (P58753 79-221): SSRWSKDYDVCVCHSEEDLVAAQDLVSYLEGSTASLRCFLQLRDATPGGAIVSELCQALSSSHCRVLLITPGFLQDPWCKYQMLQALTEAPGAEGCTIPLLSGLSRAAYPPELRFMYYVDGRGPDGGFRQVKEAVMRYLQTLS

Consider RNLGAYLFQALANKGI, for which the “P8_MAL Rank (after)” value under setting [1] worked out at 254. The “P8_MAL Rank (before)” value under setting [2] is on record as 2246.

For the sequence RNLLAYLRWAVANTVI, under setting [3], the “P8_MAL Rank (after)” value turned out to be 541. Further, under setting [4], the “P8_MAL Rank (before)” value worked out at 2312.

RNLVAYLFQALETKGI: the “Rank (after)” value under setting [5] is recorded as 416. Moreover, under setting [6], the “Rank (before)” value is listed as 2243.

In the case of RNLVAYLLQALANKGI, under setting [5], the “Rank (after)” value is on record as 451. Besides, the “Rank (before)” value under setting [6] is listed as 2244.

As for RNLVAYLLQPRANKCI, the “P8_MAL Rank (after)” value under setting [7] is recorded as 603. Moreover, under setting [8], the “P8_MAL Rank (before)” value stood at 2242.

For RNLVAYQFQALPNKGI, the “P8_MAL Rank (after)” value under setting [7] stood at 658. Also, the “P8_MAL Rank (before)” value under setting [8] was 2245.

On to RNNFFGHLYHALYRIG, for which, under setting [9], the “P8_MAL Rank (after)” value was 685. Moreover, under setting [10], the “P8_MAL Rank (before)” value was 2261.

RNNFICHLYQELYRIG: under setting [5], the “Rank (after)” value is given as 428. The “Rank (before)” value under setting [6] is given as 2264.

Regarding RNNFIGHLYQALYRI, the “P8_MAL Rank (after)” value under setting [9] is given as 676. Besides, under setting [10], the “P8_MAL Rank (before)” value was 2274.

Turning to RNNFIGHLYQAPNQSV, the “P8_MAL Rank (after)” value under setting [9] was determined as 699. Under setting [10], the “P8_MAL Rank (before)” value was determined as 2283.

As to RNNFIGHQYQALYRSR, the “P8_MAL Rank (after)” value under setting [1] was 235. The “P8_MAL Rank (before)” value under setting [2] was 2291.

In the case of RNNFLGYLYQALYRIG, the “P8_MAL Rank (after)” value under setting [7] stood at 604. Also, under setting [8], the “P8_MAL Rank (before)” value worked out at 2263.

With RNNLMDRLYQALDLLR, under setting [3], the “P8_MAL Rank (after)” value came out at 545. Further, the “P8_MAL Rank (before)” value under setting [4] was 2298.

For RNNYIGHLYQALYRNG, the “P8_MAL Rank (after)” value under setting [7] is 596. Moreover, the “P8_MAL Rank (before)” value under setting [8] is 2297.

As for RNSVAYLFQALADKGI, the “P8_MAL Rank (after)” value under setting [1] is recorded as 270. Besides, the “P8_MAL Rank (before)” value under setting [2] is given as 2247.

For RNVMSHLYQGLQNRGI, the “Rank (after)” value under setting [11] was 441. For the same sequence, under setting [12], the “Rank (before)” value was determined as 2614.

Turning to RNYVAYLFQALANTGI, the “P8_MAL Rank (after)” value under setting [7] turned out to be 579. For the same sequence, the “P8_MAL Rank (before)” value under setting [8] is given as 2250.

Turning to RNYVAYLFQALASKGI, the “Rank (after)” value under setting [5] was 407. In addition, under setting [6], the “Rank (before)” value is reported as 2249.

On to RPLKWKEALHQFHSRV, for which the “P3_MAL Rank (after)” value under setting [3] was 493. Moreover, the “P3_MAL Rank (before)” value under setting [4] is on record as 2562.

As for RRLKWKDALHQFHSWV, the “Rank (after)” value under setting [11] is 124. Moreover, the “Rank (before)” value under setting [12] is given as 594.

For RRLKWKEALHQLYSWV, the “P3_MAL Rank (after)” value under setting [7] was 668. Under setting [8], the “P3_MAL Rank (before)” value was found to be 2560.

Consider RRTFLSHLQHHFASKG, for which the Population under setting [13] was found to be 0.05%. Also, the “Rank (after)” value under setting [11] is listed as 98. The “Rank (before)” value under setting [12] is 98.

Regarding RSFRDGLWRLLELSKK, the “Rank (after)” value under setting [11] is listed as 160. Also, the “Rank (before)” value under setting [12] is reported as 3232.

Regarding RSFRDRLWRHLQLNEK, the “P3_MAL Rank (after)” value under setting [3] came to 506. Moreover, under setting [4], the “P3_MAL Rank (before)” value came to 2575.

RSFREGLWRLLELRKQ: the “P3_MAL Rank (after)” value under setting [3] is given as 507. Also, the “P3_MAL Rank (before)” value under setting [4] stood at 2627.

On to RSFVASLFQALANKGI, for which, under setting [1], the “P8_MAL Rank (after)” value was determined as 240. Further, the “P8_MAL Rank (before)” value under setting [2] is listed as 2178.

In turn, RSFVAYLFQALANKGI yielded a Population (P8_MAL pool: P8 T-Surf phage library) of 0.0034%.

For RSLRERLWRLLALSKK, the “P3_MAL Rank (after)” value under setting [3] amounted to 577. For the same sequence, the “P3_MAL Rank (before)” value under setting [4] came out at 2628.

Sequence RVFLSHLRHHLQAKDH returned a Population under setting [13] of 0.0124%.

RVFLSHPRHHLQAKDP: the “P3_MAL Rank (after)” value under setting [9] was found to be 700. In addition, the “P3_MAL Rank (before)” value under setting [10] was 2346.

With RWFLDELVKIMERKRT, the “P8_MAL Rank (after)” value under setting [1] is recorded as 218. Besides, the “P8_MAL Rank (before)” value under setting [2] was determined as 926.

For RWFWDKLIYALSRNTH, the “Rank (after)” value under setting [11] came out at 471. For the same sequence, the “Rank (before)” value under setting [12] was found to be 3228.

With RYIMPHPQELIQKNS, the “Rank (after)” value under setting [11] is 389. Also, the “Rank (before)” value under setting [12] was 2337.

Consider RYIMPHPQVLSQKKQQ, for which the “P3_MAL Rank (after)” value under setting [9] came to 725. Besides, the “P3_MAL Rank (before)” value under setting [10] came out at 2329.

Take SAAYDDFWDRLIRMIE: the “Rank (after)” value under setting [5] is listed as 173. Moreover, the “Rank (before)” value under setting [6] is listed as 1007.

As to SAFVAPLSEALNQRAL, the “P3_MAL Rank (after)” value under setting [7] came to 675. The “P3_MAL Rank (before)” value under setting [8] is 2980.

With SDFIQLINLLVKPKII, the “P8_MAL Rank (after)” value under setting [3] was 558. Moreover, under setting [4], the “P8_MAL Rank (before)” value is on record as 2443.

Consider SEFILQIILWMNPKIV, for which, under setting [5], the “Rank (after)” value is listed as 165. Also, under setting [6], the “Rank (before)” value amounted to 2449.

Consider SEFIQKIILCMNQKIV, for which, under setting [5], the “Rank (after)” value worked out at 155. Further, the “Rank (before)” value under setting [6] is given as 2458.
